Earlier results on 1 molecule are cited in patent US11903920B2, “Cannabinoid formulation: production method and use” (CHIROSYN DISCOVERY TECHNOLOGIES INC., priority 2022, dated 2024).

For the data set the following is noted: depending on the method and route of administration.

As to `C=C(C)[C@@H]1CCC(C)=C[C@H]1c1c(O)cc(CCCCC)cc1O` [CBD, 2-[1R-3-methyl-6R-(1-methylethenyl)-2-cyclohexen-1-yl]-5-pentyl-1,3-benzenediol], the Half-life was 1.4 to 120 h.
